# Key:
# Type in all cases: biochemical
# [1] = biological target: human JAK1 (a.a. 837-1142) (Homo sapiens, UniProt P23458); experiment: In vitro JAK kinase assay (HTRF), JAK1; conditions: 1 mM ATP
# Procedure, shortened: (§1)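 Baculovirus-expressed catalytic domains (JAK1 a.a. 837-1142, JAK2 a.a. 828-1132) phosphorylate 500 nM biotinylated peptide at 1 mM ATP, Tris pH 7.8, 1 h at room temperature. EDTA stop and HTRF detection with Eu-Py20/SA-APC; IC50 values derived.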
# [2] = tested on: human JAK1 (a.a. 837-1142); experiment: In vitro JAK kinase assay (HTRF), JAK1; conditions: ratio of IC50s, 1 mM ATP
# Procedure, shortened: as §1
# [3] = biological target: human JAK2 (a.a. 828-1132) (Homo sapiens (Human), UniProt O60674); experiment: In vitro JAK kinase assay (HTRF), JAK2; design: key to JAK2 IC50 (nM): + indicates an IC50 of ≤100 nM; ++ indicates an IC50 of ≤1000 nM; +++ indicates an IC50 of ≤2000 nM; ++++ indicates an IC50 of >2000 nM; +++++ indicates that the IC50 was greater than the highest concentration tested; conditions: 1 mM ATP
# Procedure: Compounds herein were tested for inhibitory activity of JAK targets according to the following in vitro assay described in Park et al., Analytical Biochemistry 1999, 269, 94-104. The catalytic domains of human JAK1 (a.a. 837-1142), JAK2 (a.a. 828-1132) and JAK3 (a.a. 781-1124) were expressed using baculovirus in insect cells and purified. The catalytic activity of JAK1, JAK2 or JAK3 was assayed by measuring the phosphorylation of a biotinylated peptide. The phosphorylated peptide was detected by homogenous time resolved fluorescence (HTRF). IC50s of compounds were measured for each kinase in the 40 μL reactions that contain the enzyme, ATP and 500 nM peptide in 50 mM Tris (pH 7.8) buffer with 100 mM NaCl, 5 mM DTT, and 0.1 mg/mL (0.01%) BSA. For the 1 mM IC50 measurements, ATP concentration in the reactions was 1 mM. Reactions were carried out at room temperature for 1 hour and then stopped with 20 μL 45 mM EDTA, 300 nM SA-APC, 6 nM Eu-Py20 in assay buffer (Perkin Elmer, Boston, Mass.). Binding to the Europium labeled antibody took place for 40 minutes and HTRF signal was measured on a PHERA star plate reader (BMG, Cary, N.C.). The Example compounds were each tested in the Example A assay (see Table 1 for data for the compounds of the examples as tested by the assay of Example A at 1 mM ATP).
# human JAK2 (a.a. 828-1132), sequence (O60674 828-1132): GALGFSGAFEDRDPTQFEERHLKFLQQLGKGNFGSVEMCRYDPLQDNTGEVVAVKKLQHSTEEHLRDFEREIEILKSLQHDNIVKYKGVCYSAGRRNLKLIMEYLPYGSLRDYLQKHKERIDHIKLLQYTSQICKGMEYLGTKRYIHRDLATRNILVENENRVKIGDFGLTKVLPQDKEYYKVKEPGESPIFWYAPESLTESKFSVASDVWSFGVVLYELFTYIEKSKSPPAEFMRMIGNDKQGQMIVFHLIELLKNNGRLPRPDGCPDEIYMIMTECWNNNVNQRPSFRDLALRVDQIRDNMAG
SMILES,IC50 [1] [nM],JAK2/JAK1 [2],IC50 [3] [nM],JAK2 IC50 (nM) [3]
"C[C@@H](O)c1nc2cnc3ccsc3c2n1[C@H]1CC[C@H](CC#N)[C@H](O)C1 (single isomer, unassigned) [36 (first peak)]",≤ 100,>10,> 2000,–
"C[C@@H](O)c1nc2cnc3ccsc3c2n1[C@@H]1CC[C@@H](CC#N)[C@@H](O)C1 (single isomer, unassigned) [36 (second peak)]",≤ 100,>10,≤ 1000,–
"C[C@@H](O)c1nc2cnc3ccsc3c2n1[C@H]1CC[C@H](CC#N)[C@@H](O)C1 (single isomer, unassigned) [37 (first peak)]",≤ 1000,>10,–,+++++
"C[C@@H](O)c1nc2cnc3ccsc3c2n1[C@@H]1CC[C@@H](CC#N)[C@H](O)C1 (single isomer, unassigned) [37 (second peak)]",≤ 100,>10,≤ 1000,–
"CCc1nc2cnc3ccsc3c2n1[C@H]1CC[C@H](CC#N)[C@@H](O)C1 (single isomer, unassigned) [40 (first peak)]",≤ 100,>10,≤ 1000,–
"CCc1nc2cnc3ccsc3c2n1[C@@H]1CC[C@@H](CC#N)[C@H](O)C1 (single isomer, unassigned) [40 (second peak)]",> 2000,–,–,+++++
"Cc1nc2cnc3ccsc3c2n1[C@@H]1CC[C@@H](CC#N)[C@H](O)C1 (single isomer, unassigned) [41 (second peak)]",> 2000,–,–,+++++
"C[C@@H](O)c1nc2cnc3ccsc3c2n1[C@H]1CCCN(C(=O)CCC(F)(F)F)C1 [Example 52, (1R)-1-{1-[(3S)-1-(4,4,4-Trifluorobutanoyl)piperidin-3-yl]-1H-imidazo[4,5-d]thieno[3,2-b]pyridin-2-yl}ethanol]",–,>10,–,+++++

# From US11161855B2, “Tricyclic fused thiophene derivatives as JAK inhibitors” (Incyte Corporation, priority 2012, dated 2021)
